Test results published in US11352340B2, “Pyridine and pyridimine compounds as PI3K-gamma inhibitors” (Incyte Corporation, priority 2016, dated 2022).
Counter-ions that a name gives are not always drawn.

How the values were obtained:
[1] = target: PI3Kδ (p110δ/p85α) Recombinant Human Protein (Homo sapiens (Human), UniProt O00329); assay: PI3Kδ Scintillation Proximity Assay; assay type: biochemical; conditions: read-out: PI3K-delta SPA IC50
How it was run: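 Recombinant human p110δ/p85α (3.4 nM) with 20 μM PIP2 and 2 μM ATP plus [γ-33P]ATP, in 20 mM MOPS pH 6.7, 10 mM MgCl2, 5 mM DTT, 0.03% CHAPS, 2% DMSO; 120 min at room temperature. Product captured on WGA SPA beads, scintillation counted; IC50 from percent-of-control curves.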

[2] = target: PI3Kγ (p110γ) Recombinant Human Protein (Homo sapiens (Human), UniProt P48736); assay: PI3K-γ Scintillation Proximity Assay; assay type: biochemical; conditions: read-out: PI3K-gamma SPA IC50
Chain of PI3Kγ (p110γ) Recombinant Human Protein (P48736 whole entry): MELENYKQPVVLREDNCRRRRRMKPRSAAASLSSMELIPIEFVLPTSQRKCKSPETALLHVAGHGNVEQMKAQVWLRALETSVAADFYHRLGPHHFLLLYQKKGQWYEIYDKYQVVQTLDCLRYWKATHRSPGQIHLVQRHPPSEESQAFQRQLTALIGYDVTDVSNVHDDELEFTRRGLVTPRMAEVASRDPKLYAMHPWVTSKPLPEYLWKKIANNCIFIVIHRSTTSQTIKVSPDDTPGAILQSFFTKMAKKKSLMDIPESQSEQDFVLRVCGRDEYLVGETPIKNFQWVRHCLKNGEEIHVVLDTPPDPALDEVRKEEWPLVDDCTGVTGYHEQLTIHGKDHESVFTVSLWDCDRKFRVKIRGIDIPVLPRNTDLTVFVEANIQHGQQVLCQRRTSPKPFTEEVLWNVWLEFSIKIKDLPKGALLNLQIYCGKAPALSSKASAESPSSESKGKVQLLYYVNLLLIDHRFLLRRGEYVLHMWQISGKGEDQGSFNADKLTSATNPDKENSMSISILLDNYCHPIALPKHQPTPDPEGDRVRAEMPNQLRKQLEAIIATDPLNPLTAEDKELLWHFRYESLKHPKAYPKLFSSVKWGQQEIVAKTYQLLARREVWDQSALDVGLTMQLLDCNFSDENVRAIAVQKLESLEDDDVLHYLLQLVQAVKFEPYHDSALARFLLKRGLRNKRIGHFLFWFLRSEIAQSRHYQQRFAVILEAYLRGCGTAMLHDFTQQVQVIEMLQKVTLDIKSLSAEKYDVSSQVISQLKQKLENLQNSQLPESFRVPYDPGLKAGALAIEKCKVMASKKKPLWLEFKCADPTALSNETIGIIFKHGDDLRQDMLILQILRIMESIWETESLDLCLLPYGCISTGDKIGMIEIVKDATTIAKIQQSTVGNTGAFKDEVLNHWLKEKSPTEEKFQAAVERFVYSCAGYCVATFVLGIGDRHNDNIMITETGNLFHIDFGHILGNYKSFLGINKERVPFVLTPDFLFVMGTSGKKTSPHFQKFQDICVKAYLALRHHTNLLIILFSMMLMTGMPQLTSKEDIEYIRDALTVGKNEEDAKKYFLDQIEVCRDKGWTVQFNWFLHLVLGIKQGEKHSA
How it was run: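 Recombinant human p110γ (13 nM) with 20 μM PIP2 and 2 μM ATP plus 0.5 μCi [γ-33P]ATP in 20 mM MOPS pH 6.7, 10 mM MgCl2, 5 mM DTT, 0.03% CHAPS, 2% DMSO, 120 min at room temperature. Product captured on WGA SPA beads and counted; IC50 fitted from % of solvent control versus log concentration.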

Chain of PI3Kδ (p110δ/p85α) Recombinant Human Protein (O00329 whole entry): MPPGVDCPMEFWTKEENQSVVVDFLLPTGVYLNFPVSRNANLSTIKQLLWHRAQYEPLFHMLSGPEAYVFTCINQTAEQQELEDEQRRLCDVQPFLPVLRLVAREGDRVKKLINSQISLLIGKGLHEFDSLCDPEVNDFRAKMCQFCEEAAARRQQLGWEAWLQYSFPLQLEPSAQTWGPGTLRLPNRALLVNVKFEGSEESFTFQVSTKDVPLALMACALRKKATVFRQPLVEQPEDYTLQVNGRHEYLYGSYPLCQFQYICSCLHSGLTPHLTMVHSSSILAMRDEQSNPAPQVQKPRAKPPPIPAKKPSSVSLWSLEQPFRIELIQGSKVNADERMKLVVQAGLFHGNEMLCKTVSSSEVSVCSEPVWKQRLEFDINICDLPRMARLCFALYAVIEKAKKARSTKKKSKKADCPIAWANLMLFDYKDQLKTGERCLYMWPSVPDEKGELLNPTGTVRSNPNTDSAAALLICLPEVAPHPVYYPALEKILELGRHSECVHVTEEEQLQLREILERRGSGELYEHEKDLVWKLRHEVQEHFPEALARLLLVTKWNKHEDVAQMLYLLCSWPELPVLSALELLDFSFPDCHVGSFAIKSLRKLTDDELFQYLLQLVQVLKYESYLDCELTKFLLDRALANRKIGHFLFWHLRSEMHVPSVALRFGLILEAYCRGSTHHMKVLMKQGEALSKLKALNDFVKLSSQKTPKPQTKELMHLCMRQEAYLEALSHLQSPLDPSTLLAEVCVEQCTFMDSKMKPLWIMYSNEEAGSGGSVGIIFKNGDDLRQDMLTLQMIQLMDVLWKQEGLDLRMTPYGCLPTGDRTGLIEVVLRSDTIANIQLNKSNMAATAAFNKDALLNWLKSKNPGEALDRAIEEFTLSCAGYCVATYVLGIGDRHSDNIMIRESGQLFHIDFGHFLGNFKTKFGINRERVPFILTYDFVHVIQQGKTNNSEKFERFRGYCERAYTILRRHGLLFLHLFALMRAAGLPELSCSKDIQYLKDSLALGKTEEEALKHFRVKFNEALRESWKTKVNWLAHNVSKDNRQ
Chain of PI3Kδ (p110δ/p85α) Recombinant Human Protein (P27986 whole entry partner): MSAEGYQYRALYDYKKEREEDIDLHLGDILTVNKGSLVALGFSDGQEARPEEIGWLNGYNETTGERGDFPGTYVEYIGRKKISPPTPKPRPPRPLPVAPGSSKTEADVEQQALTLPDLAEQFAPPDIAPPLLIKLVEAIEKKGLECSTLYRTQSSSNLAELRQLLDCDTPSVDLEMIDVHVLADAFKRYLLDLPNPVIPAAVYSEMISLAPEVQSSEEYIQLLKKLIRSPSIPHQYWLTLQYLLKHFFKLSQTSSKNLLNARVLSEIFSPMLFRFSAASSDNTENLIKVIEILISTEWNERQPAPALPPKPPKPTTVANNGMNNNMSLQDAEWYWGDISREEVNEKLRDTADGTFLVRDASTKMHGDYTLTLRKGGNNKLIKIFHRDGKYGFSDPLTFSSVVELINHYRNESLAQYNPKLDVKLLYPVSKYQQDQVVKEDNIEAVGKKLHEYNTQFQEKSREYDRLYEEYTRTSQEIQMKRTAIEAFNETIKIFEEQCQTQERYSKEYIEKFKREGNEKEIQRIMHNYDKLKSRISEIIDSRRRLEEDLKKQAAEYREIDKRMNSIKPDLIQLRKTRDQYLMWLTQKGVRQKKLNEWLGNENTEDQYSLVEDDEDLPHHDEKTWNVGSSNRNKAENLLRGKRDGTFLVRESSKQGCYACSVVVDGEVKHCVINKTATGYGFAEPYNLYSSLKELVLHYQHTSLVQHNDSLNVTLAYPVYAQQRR

Compound	IC50 [1] [nM]	IC50 [2] [nM]
Cn1cc(-c2ccnc(-c3ncc(-c4ccccc4)[nH]3)c2)cn1 [Example 8, 4-(1-Methyl-1H-pyrazol-4-yl)-2-(5-phenyl-1H-imidazol-2-yl)pyridine trifluoroacetate salt]	≤ 500	≤ 500
COc1cncc(-c2ccnc(-c3nnc(C)[nH]3)c2)c1 [Example 73, 5-Methoxy-2′-(5-methyl-4H-1,2,4-triazol-3-yl)-3,4′-bipyridine]	> 500	> 500
CC(C)(C)OC(=O)Nc1cncc(-c2ccnc(-c3ncc(-c4ccccc4)[nH]3)c2)c1 [Example 126, tert-Butyl [2′-(5-phenyl-1H-imidazol-2-yl)-3,4′-bipyridin-5-yl]carbamate]	≤ 500	≤ 500
Cc1nc(-c2cc(-c3cncc(C(=O)N4CCN(C(N)=O)CC4)c3)ccn2)[nH]c1C [Example 150, 4-(2′-(4,5-Dimethyl-1H-imidazol-2-yl)-3,4′-bipyridine-5-carbonyl)piperazine-1-carboxamide]	≤ 100	≤ 500
Cc1nc(-c2cc(-c3cncc(C(=O)N[C@@H]4CCOC4)c3)ccn2)[nH]c1C [Example 176, 2′-(4,5-Dimethyl-1H-imidazol-2-yl)-N-[(3R)-tetrahydrofuran-3-yl]-3,4′-bipyridine-5-carboxamide trifluoroacetate salt]	≤ 500	≤ 100
O=C(O)c1ccc(Cn2cc(-c3ccnc(-c4ncc(-c5ccccc5)[nH]4)c3)cn2)cc1 [Example 35, 4-((4-(2-(5-Phenyl-1H-imidazol-2-yl)pyridin-4-yl)-1H-pyrazol-1-yl)methyl)benzoic acid trifluoroacetate salt]	≤ 500	≤ 500
CC(=O)N1CCC=C(c2ccnc(-c3nc(C)c(C)[nH]3)c2)C1 [Example 219, 1-(3-(2-(4,5-Dimethyl-1H-imidazol-2-yl)pyridin-4-yl)-5,6-dihydropyridin-1(2H)-yl)ethanone trifluoroacetate salt]	> 500	> 500
O=S(=O)(c1ccccc1)N1CCC(c2c[nH]c(-c3cc(-c4cnn(Cc5ccc(Cl)cc5)c4)ccn3)n2)C1 (centres unmarked) [Example 305, 4-[1-(4-Chlorobenzyl)-1H-pyrazol-4-yl]-2-{4-[1-(phenylsulfonyl)pyrrolidin-3-yl]-1H-imidazol-2-yl}pyridine trifluoroacetate salt]	≤ 500	≤ 500
Cc1nc(-c2cc(C3=CCCN(Cc4ccc(Cl)cc4)C3)ccn2)[nH]c1C [Example 224, 4-(1-(4-Chlorobenzyl)-1,2,5,6-tetrahydropyridin-3-yl)-2-(4,5-dimethyl-1H-imidazol-2-yl)pyridine trifluoroacetate salt]	> 500	> 500
Cc1[nH]c(-c2cc(-c3cncc(N4CCOCC4)c3)ccn2)nc1CN(C)C [Example 289, N,N-Dimethyl-1-[5-methyl-2-(5-morpholin-4-yl-3,4′-bipyridin-2′-yl)-1H-imidazol-4-yl]methanamine]	≤ 50	> 500
N#Cc1ccc(C(=O)Nc2cncc(-c3ccnc(-c4ncc(-c5ccccc5)[nH]4)c3)c2)cc1 [Example 137, 4-Cyano-N-(2′-(5-phenyl-1H-imidazol-2-yl)-3,4′-bipyridin-5-yl)benzamide]	≤ 500	≤ 500
c1ccc(-c2cnc(-c3cc(-c4cnn(CCN5CCOCC5)c4)ccn3)[nH]2)cc1 [Example 26, 4-(2-(4-(2-(5-Phenyl-1H-imidazol-2-yl)pyridin-4-yl)-1H-pyrazol-1-yl)ethyl)morpholine trifluoroacetate salt]	> 500	> 500
Cc1nc(-c2cc(-c3cncc(C(=O)N4CCOCC4)c3)ccn2)[nH]c1C [Example 148, (2′-(4,5-Dimethyl-1H-imidazol-2-yl)-3,4′-bipyridin-5-yl)(morpholino)methanone]	≤ 500	≤ 100
COCCNCc1nc(-c2cc(-c3cncc(N4CCOCC4)c3)ccn2)[nH]c1C [Example 290, 2-Methoxy-N-{[5-methyl-2-(5-morpholin-4-yl-3,4′-bipyridin-2′-yl)-1H-imidazol-4-yl]methyl}ethanamine]	≤ 100	> 500
NC(=O)Cn1cc(-c2ccnc(-c3ncc(-c4ccccc4)[nH]3)c2)cn1 [Example 48, 2-(4-(2-(5-Phenyl-1H-imidazol-2-yl)pyridin-4-yl)-1H-pyrazol-1-yl)acetamide trifluoroacetate salt]	> 500	> 500
Cc1nc(-c2cc(C3=CCN(S(C)(=O)=O)C3)ccn2)[nH]c1C [Example 227, 2-(4,5-Dimethyl-1H-imidazol-2-yl)-4-(1-(methylsulfonyl)-2,5-dihydro-1H-pyrrol-3-yl)pyridine trifluoroacetate salt]	> 500	> 500

Compound	IC50 [1] [nM]	IC50 [2] [nM]
Cc1nc(-c2cc(-c3cncc(C(=O)N4CCC(Cc5ccccc5)CC4)c3)ccn2)[nH]c1C [Example 189, 5-[(4-Benzylpiperidin-1-yl)carbonyl]-2′-(4,5-dimethyl-1H-imidazol-2-yl)-3,4′-bipyridine trifluoroacetate salt]	≤ 50	≤ 100
Cc1nc(-c2cc(C3=CCCN(Cc4ccccc4)C3)ccn2)[nH]c1C [Example 223, 4-(1-Benzyl-1,2,5,6-tetrahydropyridin-3-yl)-2-(4,5-dimethyl-1H-imidazol-2-yl)pyridine trifluoroacetate salt]	> 500	> 500
N#CCCn1cc(-c2ccnc(-c3ncc(-c4ccccc4)[nH]3)c2)cn1 [Example 52, 3-(4-(2-(5-Phenyl-1H-imidazol-2-yl)pyridin-4-yl)-1H-pyrazol-1-yl)propanenitrile trifluoroacetate salt]	≤ 500	> 500
O=C(Nc1cncc(-c2ccnc(-c3ncc(-c4ccccc4)[nH]3)c2)c1)c1cccc(Cl)c1 [Example 134, 3-Chloro-N-(2′-(5-phenyl-1H-imidazol-2-yl)-3,4′-bipyridin-5-yl)benzamide]	> 500	> 500
CN(C)C(=O)Cn1cc(-c2ccnc(-c3ncc(-c4ccccc4)[nH]3)c2)cn1 [Example 49, N,N-Dimethyl-2-(4-(2-(5-phenyl-1H-imidazol-2-yl)pyridin-4-yl)-1H-pyrazol-1-yl)acetamide trifluoroacetate salt]	> 500	> 500
CCc1cnc(-c2cc(-c3cncc(N4CCOCC4)c3)ccn2)[nH]1 [Example 100, 4-(2′-(5-Ethyl-1H-imidazol-2-yl)-3,4′-bipyridin-5-yl)morpholine trifluoroacetate salt]	≤ 500	≤ 500
Cc1[nH]c(-c2cc(-c3cncc(S(C)(=O)=O)c3)ccn2)nc1C(=O)N1CC[C@H](O)C1 [Example 246, (3S)-1-({5-Methyl-2-[5-(methylsulfonyl)-3,4′-bipyridin-2′-yl]-1H-imidazol-4-yl}carbonyl)pyrrolidin-3-ol]	≤ 500	≤ 500
Cc1nc(-c2cc(C3=CCCN(S(C)(=O)=O)C3)ccn2)[nH]c1C [Example 220, 2-(4,5-Dimethyl-1H-imidazol-2-yl)-4-(1-(methylsulfonyl)-1,2,5,6-tetrahydropyridin-3-yl)pyridine trifluoroacetate salt]	> 500	≤ 500
COCCN(C)C(=O)c1cncc(-c2ccnc(-c3nc(C)c(C)[nH]3)c2)c1 [Example 204, 2′-(4,5-Dimethyl-1H-imidazol-2-yl)-N-(2-methoxyethyl)-N-methyl-3,4′-bipyridine-5-carboxamide trifluoroacetate salt]	≤ 50	≤ 100
Clc1ccc(Cn2cc(-c3ccnc(-c4nc(C5CCNC5)c[nH]4)c3)cn2)cc1 (racemic) [Example 306, 4-[1-(4-Chlorobenzyl)-1H-pyrazol-4-yl]-2-(4-pyrrolidin-3-yl-1H-imidazol-2-yl)pyridine Trifluoroacetate Salt]	> 500	> 500
COc1cncc(-c2ccnc(-c3nc4c([nH]3)CCC4)c2)c1 [Example 78, 2-(5-Methoxy-3,4′-bipyridin-2′-yl)-1,4,5,6-tetrahydrocyclopenta[d]imidazole]	≤ 500	≤ 500
Cc1nc(-c2cc(-c3cncc(C4=CCN(C(=O)OC(C)(C)C)C4)c3)ccn2)[nH]c1C [Example 235, tert-Butyl 3-[2′-(4,5-dimethyl-1H-imidazol-2-yl)-3,4′-bipyridin-5-yl]-2,5-dihydro-1H-pyrrole-1-carboxylate]	> 500	≤ 500
Cc1nc(-c2cc(-c3cncc(C(=O)N(C)CCCO)c3)ccn2)[nH]c1C [Example 209, 2′-(4,5-Dimethyl-1H-imidazol-2-yl)-N-(3-hydroxypropyl)-N-methyl-3,4′-bipyridine-5-carboxamide]	≤ 100	≤ 100
Cc1[nH]c(-c2cc(-c3cncc(N4CCOCC4)c3)ccn2)nc1C(=O)N[C@@H]1CCN(Cc2ccccc2)C1 [Example 280, N-[(3R)-1-Benzylpyrrolidin-3-yl]-5-methyl-2-(5-morpholin-4-yl-3,4′-bipyridin-2′-yl)-1H-imidazole-4-carboxamide trifluoroacetate salt]	≤ 50	≤ 500
O=C(O)c1ccccc1Cn1cc(-c2ccnc(-c3ncc(-c4ccccc4)[nH]3)c2)cn1 [Example 33, 2-((4-(2-(5-Phenyl-1H-imidazol-2-yl)pyridin-4-yl)-1H-pyrazol-1-yl)methyl)benzoic acid trifluoroacetate salt]	≤ 500	> 500
